Measurements as given in US9226902B2, “Stabilized transdermal drug delivery system” (Mylan Technologies Inc., priority 2008, dated 2016).

Assay: Glass transition temperature (DSC)
Type: physicochemical
Conditions: amorphous form
Method: The glass transition temperature of undispersed amorphous scopolamine is about 10° C.

**Q.** For `CN1[C@@H]2C[C@@H](OC(=O)[C@H](CO)c3ccccc3)C[C@H]1[C@@H]1O[C@@H]12` [undispersed amorphous scopolamine, scopolamine], which “glass transition temperature (Tg)” value is on record?
**A.** about 10 °C
